Source: publication PMC11062922 (Nature Chemical Biology, 2023)

Tests used:
Experiment in all cases: Kinobeads competition binding profiling, two doses (100 nM and 1 µM);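 further: inhibitor preincubated 45 min at 4 °C in cell lysate, then bead pulldown. Bound protein quantified by label-free mass spectrometry relative to DMSO vehicle control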
[1] = molecular target: T1, endogenous kinases and other proteins enriched by Kinobeads from mixed lysates of K-562, COLO-205, MV-4-11, SK-N-BE(2) and OVCAR-8 (Homo sapiens, UniProt Q13627); settings: DYRK1A
T1 construct: endogenous in cells

[2] = molecular target: T2, endogenous kinases and other proteins enriched by Kinobeads from mixed lysates of K-562, COLO-205, MV-4-11, SK-N-BE(2) and OVCAR-8 (Homo sapiens, UniProt P22694); settings: PKAC-beta
T2 construct: endogenous in cells

[3] = molecular target: T3, endogenous kinases and other proteins enriched by Kinobeads from mixed lysates of K-562, COLO-205, MV-4-11, SK-N-BE(2) and OVCAR-8 (Homo sapiens, UniProt P54646); settings: AMPK-alpha2
T3 construct: endogenous in cells

[4] = molecular target: T4, endogenous kinases and other proteins enriched by Kinobeads from mixed lysates of K-562, COLO-205, MV-4-11, SK-N-BE(2) and OVCAR-8 (Homo sapiens, UniProt Q9HC98); settings: NEK6
T4 construct: endogenous in cells

[5] = molecular target: T5, endogenous kinases and other proteins enriched by Kinobeads from mixed lysates of K-562, COLO-205, MV-4-11, SK-N-BE(2) and OVCAR-8 (Homo sapiens, UniProt P51956); settings: NEK3
T5 construct: endogenous in cells

[6] = molecular target: T6, endogenous kinases and other proteins enriched by Kinobeads from mixed lysates of K-562, COLO-205, MV-4-11, SK-N-BE(2) and OVCAR-8 (Homo sapiens, UniProt P49759); settings: CLK1
T6 construct: endogenous in cells

[7] = molecular target: T7, endogenous kinases and other proteins enriched by Kinobeads from mixed lysates of K-562, COLO-205, MV-4-11, SK-N-BE(2) and OVCAR-8 (Homo sapiens, UniProt Q8WZ42); settings: read-out: Lestaurtinib Drugmatrix value, Gene Name TTN; target TTN; one Lestaurtinib control experiment/replicate (R1-R3)
T7 construct: endogenous in cells

[8] = molecular target: T8, endogenous kinases and other proteins enriched by Kinobeads from mixed lysates of K-562, COLO-205, MV-4-11, SK-N-BE(2) and OVCAR-8 (Homo sapiens, UniProt Q13188); settings: read-out: Lestaurtinib Drugmatrix value, Gene Name STK3; target STK3; one Lestaurtinib control experiment/replicate (R1-R3)
T8 construct: endogenous in cells

[9] = molecular target: T9, endogenous kinases and other proteins enriched by Kinobeads from mixed lysates of K-562, COLO-205, MV-4-11, SK-N-BE(2) and OVCAR-8 (Homo sapiens, UniProt O43353); settings: read-out: Lestaurtinib Drugmatrix value, Gene Name RIPK2; target RIPK2; one Lestaurtinib control experiment/replicate (R1-R3)
T9 construct: to maximize the representation of endogenous proteins; endogenous in cells

[10] = molecular target: T10, endogenous kinases and other proteins enriched by Kinobeads from mixed lysates of K-562, COLO-205, MV-4-11, SK-N-BE(2) and OVCAR-8 (Homo sapiens, UniProt Q05397); settings: read-out: Lestaurtinib Drugmatrix value, Gene Name PTK2
T10 construct: endogenous in cells

[11] = molecular target: T11, endogenous kinases and other proteins enriched by Kinobeads from mixed lysates of K-562, COLO-205, MV-4-11, SK-N-BE(2) and OVCAR-8 (Homo sapiens, UniProt Q15569); settings: read-out: Lestaurtinib Drugmatrix value, Gene Name TESK1; target TESK1; one Lestaurtinib control experiment/replicate (R1-R3)
T11 construct: endogenous in cells

[12] = molecular target: T12, endogenous kinases and other proteins enriched by Kinobeads from mixed lysates of K-562, COLO-205, MV-4-11, SK-N-BE(2) and OVCAR-8 (Homo sapiens, UniProt P42680); settings: read-out: Lestaurtinib Drugmatrix value, Gene Name TEC; target TEC; one Lestaurtinib control experiment/replicate (R1-R3)
T12 construct: to maximize the representation of endogenous proteins; endogenous in cells
T12 sequence (P42680 whole entry): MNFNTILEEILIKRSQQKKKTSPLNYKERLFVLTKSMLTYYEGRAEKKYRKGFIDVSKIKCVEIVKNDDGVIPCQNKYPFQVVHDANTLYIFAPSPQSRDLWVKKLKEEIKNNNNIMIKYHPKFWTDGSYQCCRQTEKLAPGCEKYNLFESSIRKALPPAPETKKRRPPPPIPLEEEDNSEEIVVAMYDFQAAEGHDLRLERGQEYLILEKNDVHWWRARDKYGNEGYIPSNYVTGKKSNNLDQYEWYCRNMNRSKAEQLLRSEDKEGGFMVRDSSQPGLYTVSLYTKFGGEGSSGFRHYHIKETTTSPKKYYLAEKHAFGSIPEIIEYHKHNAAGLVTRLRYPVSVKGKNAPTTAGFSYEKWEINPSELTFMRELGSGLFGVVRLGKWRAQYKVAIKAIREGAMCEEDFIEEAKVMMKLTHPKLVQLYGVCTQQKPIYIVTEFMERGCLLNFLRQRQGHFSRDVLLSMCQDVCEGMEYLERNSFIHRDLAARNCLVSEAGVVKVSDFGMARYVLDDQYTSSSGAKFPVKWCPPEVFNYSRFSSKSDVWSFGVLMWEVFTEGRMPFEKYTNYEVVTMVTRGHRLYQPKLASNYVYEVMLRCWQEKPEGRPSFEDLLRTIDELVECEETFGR

T5 sequence (P51956 whole entry): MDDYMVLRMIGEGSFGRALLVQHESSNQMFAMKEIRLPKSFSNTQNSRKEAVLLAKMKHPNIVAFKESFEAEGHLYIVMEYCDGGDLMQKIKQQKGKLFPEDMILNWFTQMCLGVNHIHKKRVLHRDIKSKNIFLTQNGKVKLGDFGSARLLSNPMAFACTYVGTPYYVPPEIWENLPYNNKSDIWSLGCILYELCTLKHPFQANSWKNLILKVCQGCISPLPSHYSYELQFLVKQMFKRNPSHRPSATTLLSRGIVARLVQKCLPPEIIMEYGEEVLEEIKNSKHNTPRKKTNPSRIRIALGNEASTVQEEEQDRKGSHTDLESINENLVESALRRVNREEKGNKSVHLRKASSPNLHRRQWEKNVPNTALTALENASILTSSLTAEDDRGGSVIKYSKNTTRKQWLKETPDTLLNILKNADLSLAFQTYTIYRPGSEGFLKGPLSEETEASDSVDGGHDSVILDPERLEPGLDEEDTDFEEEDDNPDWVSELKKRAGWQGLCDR
T9 sequence (O43353 whole entry): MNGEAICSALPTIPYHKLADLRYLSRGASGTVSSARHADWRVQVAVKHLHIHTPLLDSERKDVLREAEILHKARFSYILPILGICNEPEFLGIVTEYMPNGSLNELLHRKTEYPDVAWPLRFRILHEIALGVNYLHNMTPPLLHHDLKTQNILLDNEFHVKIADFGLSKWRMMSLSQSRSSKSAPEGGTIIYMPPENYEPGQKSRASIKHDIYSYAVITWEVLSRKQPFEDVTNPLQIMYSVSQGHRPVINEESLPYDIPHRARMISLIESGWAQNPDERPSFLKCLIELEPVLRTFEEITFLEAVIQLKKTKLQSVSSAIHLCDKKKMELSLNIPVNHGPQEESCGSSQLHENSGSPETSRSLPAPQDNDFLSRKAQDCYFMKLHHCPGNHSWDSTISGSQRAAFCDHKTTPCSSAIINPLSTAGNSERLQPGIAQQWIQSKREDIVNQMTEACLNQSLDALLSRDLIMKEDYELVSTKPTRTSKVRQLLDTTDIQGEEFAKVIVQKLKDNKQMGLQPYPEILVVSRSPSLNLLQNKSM
T11 sequence (Q15569 whole entry): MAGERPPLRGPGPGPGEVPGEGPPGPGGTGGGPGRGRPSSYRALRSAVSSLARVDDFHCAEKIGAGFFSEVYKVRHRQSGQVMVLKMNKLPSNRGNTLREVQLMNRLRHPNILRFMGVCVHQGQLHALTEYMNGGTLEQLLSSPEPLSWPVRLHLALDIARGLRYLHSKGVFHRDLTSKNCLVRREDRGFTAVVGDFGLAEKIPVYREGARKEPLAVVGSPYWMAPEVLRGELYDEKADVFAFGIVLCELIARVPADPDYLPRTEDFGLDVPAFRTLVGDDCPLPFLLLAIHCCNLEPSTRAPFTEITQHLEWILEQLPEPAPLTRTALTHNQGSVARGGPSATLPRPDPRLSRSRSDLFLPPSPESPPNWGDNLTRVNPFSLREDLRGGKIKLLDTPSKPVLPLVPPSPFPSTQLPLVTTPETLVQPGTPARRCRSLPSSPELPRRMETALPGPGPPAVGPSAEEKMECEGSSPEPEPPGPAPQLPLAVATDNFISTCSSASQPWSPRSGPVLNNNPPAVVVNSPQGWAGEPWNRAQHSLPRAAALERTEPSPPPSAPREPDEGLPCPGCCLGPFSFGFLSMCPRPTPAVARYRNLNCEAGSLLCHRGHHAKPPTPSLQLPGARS
T6 sequence (P49759 whole entry): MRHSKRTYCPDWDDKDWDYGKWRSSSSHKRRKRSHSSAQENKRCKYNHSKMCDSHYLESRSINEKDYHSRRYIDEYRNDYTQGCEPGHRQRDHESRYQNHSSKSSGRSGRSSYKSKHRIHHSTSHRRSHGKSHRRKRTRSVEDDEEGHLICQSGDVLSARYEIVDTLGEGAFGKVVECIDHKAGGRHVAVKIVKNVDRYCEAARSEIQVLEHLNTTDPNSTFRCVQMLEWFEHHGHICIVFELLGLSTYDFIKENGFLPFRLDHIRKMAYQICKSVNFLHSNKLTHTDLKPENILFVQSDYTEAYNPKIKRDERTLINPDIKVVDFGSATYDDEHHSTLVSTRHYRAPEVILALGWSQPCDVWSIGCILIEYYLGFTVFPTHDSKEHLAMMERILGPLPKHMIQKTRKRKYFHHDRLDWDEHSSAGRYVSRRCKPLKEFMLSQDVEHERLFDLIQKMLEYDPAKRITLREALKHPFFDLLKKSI
T8 sequence (Q13188 whole entry): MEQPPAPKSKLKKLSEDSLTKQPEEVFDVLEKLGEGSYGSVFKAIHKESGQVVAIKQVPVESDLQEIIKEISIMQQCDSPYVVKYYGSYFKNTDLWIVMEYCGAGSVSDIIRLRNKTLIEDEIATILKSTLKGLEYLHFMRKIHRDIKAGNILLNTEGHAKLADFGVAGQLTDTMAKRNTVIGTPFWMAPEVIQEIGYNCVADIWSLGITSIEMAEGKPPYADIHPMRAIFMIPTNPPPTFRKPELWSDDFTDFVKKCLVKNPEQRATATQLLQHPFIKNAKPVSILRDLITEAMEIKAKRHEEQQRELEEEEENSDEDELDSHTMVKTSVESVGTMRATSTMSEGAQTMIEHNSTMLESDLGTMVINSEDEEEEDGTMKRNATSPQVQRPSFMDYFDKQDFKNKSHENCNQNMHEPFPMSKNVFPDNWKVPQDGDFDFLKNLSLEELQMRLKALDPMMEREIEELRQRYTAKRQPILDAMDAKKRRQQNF
T3 sequence (P54646 whole entry): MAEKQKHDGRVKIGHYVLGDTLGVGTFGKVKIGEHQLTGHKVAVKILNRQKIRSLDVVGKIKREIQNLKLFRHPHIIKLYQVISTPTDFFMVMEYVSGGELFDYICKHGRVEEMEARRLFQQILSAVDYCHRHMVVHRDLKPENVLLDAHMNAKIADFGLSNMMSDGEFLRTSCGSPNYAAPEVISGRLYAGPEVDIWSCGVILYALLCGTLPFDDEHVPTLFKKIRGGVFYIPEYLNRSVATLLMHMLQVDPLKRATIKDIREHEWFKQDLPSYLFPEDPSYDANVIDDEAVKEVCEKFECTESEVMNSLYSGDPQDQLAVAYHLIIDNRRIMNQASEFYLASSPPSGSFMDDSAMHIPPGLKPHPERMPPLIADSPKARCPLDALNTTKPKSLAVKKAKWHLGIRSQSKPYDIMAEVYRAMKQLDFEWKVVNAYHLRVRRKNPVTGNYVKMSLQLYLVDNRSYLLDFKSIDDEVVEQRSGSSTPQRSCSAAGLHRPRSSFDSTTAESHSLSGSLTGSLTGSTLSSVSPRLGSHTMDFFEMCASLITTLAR
T4 sequence (Q9HC98 whole entry): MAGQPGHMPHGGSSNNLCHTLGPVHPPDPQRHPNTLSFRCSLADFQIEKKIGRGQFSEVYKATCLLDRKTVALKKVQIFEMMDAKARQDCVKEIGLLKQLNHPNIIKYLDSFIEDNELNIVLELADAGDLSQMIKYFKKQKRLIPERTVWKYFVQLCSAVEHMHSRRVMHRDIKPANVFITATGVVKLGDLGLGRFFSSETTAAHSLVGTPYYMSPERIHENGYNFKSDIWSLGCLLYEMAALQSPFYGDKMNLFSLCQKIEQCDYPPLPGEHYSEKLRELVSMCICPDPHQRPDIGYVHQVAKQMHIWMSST

SMILES	Kinobeads Data [1]	Kinobeads Data [2]	Kinobeads Data [3]	Kinobeads Data [4]	Kinobeads Data [5]	Kinobeads Data [6]	potency estimated from few doses [7]	potency estimated from few doses [8]	potency estimated from few doses [9]	potency estimated from few doses [10]	potency estimated from few doses [11]	potency estimated from few doses [12]
COc1cc(Nc2ncc3c(C)nc(-c4cc5ccccc5[nH]4)n3n2)cc(OC)c1OC [GW869516X]	no target	no target	no target	no target	no target	no target						
C[C@]12O[C@H](C[C@]1(O)CO)n1c3ccccc3c3c4c(c5c6ccccc6n2c5c31)CNC4=O [Lestaurtinib]							737 nM	39.1 nM	810 nM	345 nM	622 nM	895 nM
